Measured values: patent US20250136555A1 (HARBIN MEDISAN PHARMACEUTICAL CO., LTD., priority 2022, published 2025)
“Also recorded” adds a separate entry of the source. Like-named read-outs stand apart in the source and are kept apart here.

Legend:
C57 mice = experiment: Serum triglyceride levels in mice; type: in vivo
Method: Animals: 48 male C57 mice, SPF grade, 8 weeks old, weighing about 20 g, purchased from Beijing Vital River. All animals maintained a 12-hour alternating circadian rhythm and were given ad libitum access to food and water. […] Mice in the control group were administered a solvent control CMC-Na every day, and mice in each of the administration groups were administered the corresponding drug every day. Intragastric administration was performed for 5 consecutive days, and the mice were given ad libitum access to food and water during administration. Each group of mice was weighed every day, and their body weight, hair, feces, and activities were carefully observed and recorded. Two hours after administration on day 5, blood was collected from the orbit, and the mice were euthanized. The whole blood was left to stand at room temperature for 2 h and centrifuged at 3000 rpm for 15 min, and serum was collected. The serum was placed onto the automatic biochemical analyzer (Google Biotechnology Co., Ltd.) to determine the triglyceride (TG) levels in the serum.

NASH model mice = experiment: NASH induced by HF-CDAA diet in mice; type: in vivo, C57 mice
[1] = test system: PPARα/δ downstream target genes; experiment: Expression of PPARα/δ downstream target genes in mouse liver and skeletal muscle; type: in vivo, C57 mice; conditions: mice, 0.03 and 0.1 mg/kg, three days
Method: C57 mice were divided into three groups, i.e., a control group, a low dose group (0.03 mg/kg), and a high dose group (0.1 mg/kg), with 6 mice in each group. Each group of mice was intragastrically administered compound 1 or a solvent control with the same volume for three consecutive days according to the doses. Three days after administration, the mice were euthanized and dissected for sampling. Liver and skeletal muscle were snap-frozen in liquid nitrogen for subsequent experiments. After extracting RNA in the liver and skeletal muscle, the up-regulation fold of the expression of the PPARα/δ downstream target genes was detected. […] Some of other compounds of the present invention also have similar effects.

PPARα = target: T1, PPARα (Homo sapiens, UniProt Q07869); experiment: GAL4 hybrid reporter gene method, PPARα agonistic activity; type: cell-based; conditions: Cos-7 cells, Gal4-PPARα (LBD); GW7647 10 nM = 100%; 16 h
T1 construct: expressed in transfected cells; host or cells: COS-7
T1 sequence (Q07869 239-466 limits assumed): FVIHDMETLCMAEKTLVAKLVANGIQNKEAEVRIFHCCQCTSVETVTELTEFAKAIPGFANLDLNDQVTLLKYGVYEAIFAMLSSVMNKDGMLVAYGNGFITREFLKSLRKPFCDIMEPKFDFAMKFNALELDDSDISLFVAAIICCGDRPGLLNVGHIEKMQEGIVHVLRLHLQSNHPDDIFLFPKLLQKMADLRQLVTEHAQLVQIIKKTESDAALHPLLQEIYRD
Method: Cos-7 cells (African green monkey kidney fibroblasts, commonly used tool cells) were cultured in a 10-cm cell culture dish with a DMEM complete medium containing 10% fetal bovine serum. When growing at a density of about 70%, the cells were ready for transfection. […] The working solution described above was then combined with 8 mL of the DMEM complete medium, and the mixture was added to the cell culture dish for cell transfection. After 4 h of transfection, the cells were digested, resuspended, and seeded into a 96-well plate at 25,000 cells/well. […] 10 μL of a reporter gene detection solution (purchased from Shanghai Beyotime Biological Tech. Co., Ltd.) was added. After the resulting solution was mixed and reacted, biological fluorescence was detected by using a multifunctional microplate reader, and corresponding half maximal effective concentration (EC50) values were calculated according to the detection values. […] Transfection working solutions for different nuclear receptors were prepared and added into COS-7 cells. The preparation method for the transfection working solution was as follows: the constructed pBIND-Gal4-PPARα (LBD) (or pBIND-Gal4-PPARδ (LBD) plasmid or pBIND-Gal4-PPARγ (LBD) plasmid or pBIND-Gal4-RARα (LBD) plasmid or pBIND-Gal4-RARγ (LBD) plasmid or pBIND-Gal4-RARβ (LBD) plasmid or pBIND-Gal4-RORα (LBD) plasmid or pBIND-Gal4-RORγ (LBD) plasmid or pBIND-Gal4-RORβ (LBD) plasmid or pBIND-Gal4-FXR (LBD) plasmid or pBIND-Gal4-RXRα.

[2] = Metabolic stability in human liver microsomes; type: in vitro ADME
Method: A solution of the compound in acetonitrile at a concentration of 500 μM was prepared and diluted in 0.1 M potassium phosphate solution to obtain a 1.5 μM drug working solution. The drug working solution was co-incubated with a human liver microsome working solution at a final concentration of 0.75 mg/mL and a NADPH solution (at a final concentration of 550 μM), and the incubation was terminated by adding an acetonitrile solution at 0 min, 15 min, 30 min, 45 min, and 60 min, respectively. The remaining amount of the compound remained in the system at each time point was detected by using LC/MS, the absolute value k of the slope was measured by plotting the natural logarithm of the percentage of the remaining amount of the compound over time, and the calculation was performed according to the formula: T1/2 (half-life)=ln2/k=0.693/k.

[3] = Pharmacokinetic evaluation in rats; type: in vivo, SD rats; conditions: for AUC(0-inf): read-out: Area under the curve AUC(0-∞); for Tmax: read-out: Peak time Tmax
Method: Animals: 6 SPF-grade male SD rats were purchased from Beijing Vital River Laboratory Animal Technology Co., Ltd.
Grouping: rats were divided into 2 groups, with 3 rats in each group; one group was an oral administration group, and the other group was an intravenous injection group. The dose in the oral administration group was 10 mpk, and the dose in the intravenous injection group was 2 mpk.
Experimental procedures: after rats in the intravenous injection group were administered by tail vein injection, about 0.25 mL of blood was collected from the orbit at 0.083 h, 0.25 h, 0.5 h, 1 h, 2 h, 4 h, 6 h, 8 h, and 24 h, respectively, and then heparin sodium was rapidly added for anticoagulation after blood collection. The blood was placed on ice after collection. Rats in the oral administration group were fasted for 12 h before administration and fed 4 h after administration. After the rats were administered orally, about 0.25 mL of blood was collected from the orbit at 0.083 h, 0.25 h, 0.5 h, 1 h, 2 h, 4 h, 6 h, 8 h, and 24 h, respectively, and then heparin sodium was rapidly added for anticoagulation after blood collection. The blood was placed on ice after collection. All samples were centrifuged at 6000 r/min for 3 min in a low-temperature centrifuge, and plasma was obtained after separation. The content of the compound in the plasma was detected via LC-MS/MS-18, and relevant pharmacokinetic parameters were calculated according to the plasma concentration data of different time points.

[4] = NASH model mice, 0.1 mg/kg intragastric daily, 2 weeks
[5] = compound 1 0.1 mg/kg vs GFT505 10 mg/kg
[6] = human liver microsomes 0.75 mg/mL, NADPH
[7] = male, SD, rat, plasma, 2 mg/kg, intravenous injection, 2 mpk
[8] = male, SD, rat, plasma, 10 mg/kg, oral administration, 10 mpk

Cc1cc(CN2C(=O)CN(c3ccc(C(F)(F)F)cc3)C2=O)cc(C)c1OC(C)(C)C(=O)O [Compound 1, 2-(4-((2,5-Dioxo-3-(4-(trifluoromethyl)phenyl)imidazolidin-1-yl)methyl)-2,6-dimethylphenoxy)-2-methylpropionic Acid]
triglyceride level in mouse serum (FIG. 1) (C57 mice; 1 mg/kg intragastric, 5 consecutive days): significantly reduce the triglyceride level | effect in reducing triglycerides versus positive drugs (C57 mice; compound 1 1 mg/kg vs GFT505 1 mg/kg, pemafibrate 1 mg/kg, fenofibrate 30 mg/kg): significantly more effective in reducing triglycerides than GFT505 and pemafibrate at the equivalent dose; also recorded: superior to fenofibrate | pathological state of NASH mice (conclusion) (NASH model mice; 0.1 mg/kg): significantly improve the pathological state | collagen deposition in liver, sirius red staining (FIG. 8) (NASH model mice; NASH model mice, 0.1 mg/kg): reduce collagen deposition | inflammatory infiltration in hepatic lobules, HE staining (FIG. 7) (NASH model mice; NASH model mice, 0.1 mg/kg): reduce inflammatory infiltration | lipid droplets in liver, oil red staining (FIG. 9) (NASH model mice; NASH model mice, 0.1 mg/kg): reduce the number and area of lipid droplets | liver mRNA expression level of Acta2 (FIG. 12) (NASH model mice; NASH model mice, 0.1 mg/kg): inhibit the increase | liver mRNA expression level of Ccl2 (FIG. 11) (NASH model mice; NASH model mice, 0.1 mg/kg): inhibit the increase | liver mRNA expression level of Ccl5 (FIG. 11) (NASH model mice; NASH model mice, 0.1 mg/kg): inhibit the increase | liver mRNA expression level of Cd11b (FIG. 11) (NASH model mice; NASH model mice, 0.1 mg/kg): inhibit the increase | liver mRNA expression level of Col1a1 (FIG. 12) (NASH model mice; NASH model mice, 0.1 mg/kg): inhibit the increase | liver mRNA expression level of Col3a1 (FIG. 12) (NASH model mice; NASH model mice, 0.1 mg/kg): inhibit the increase | liver mRNA expression level of Tgfb1 (FIG. 12) (NASH model mice; NASH model mice, 0.1 mg/kg): inhibit the increase | liver mRNA expression level of Tnf (FIG. 11) (NASH model mice; NASH model mice, 0.1 mg/kg): inhibit the increase | triglyceride content in the liver (FIG. 10) (NASH model mice; NASH model mice, 0.1 mg/kg): reduce triglyceride accumulation | serum ALT level (FIG. 6) (NASH model mice; [4]): down-regulated | serum AST level (FIG. 6) (NASH model mice; [4]): down-regulated | effect on reducing hepatic enzymes versus GFT505 (NASH model mice; [5]): slightly better effect on reducing the levels of hepatic enzymes than that of GFT505 at 10 mg/kg | effect on reducing hepatic triglycerides versus GFT505 (NASH model mice; [5]): superior to that of GFT505 at 10 mg/kg | effect on reducing lipid accumulation versus GFT505 (NASH model mice; [5]): superior to that of GFT505 at 10 mg/kg | therapeutic effect in NASH mice versus GFT505 (NASH model mice; [5]): equivalent therapeutic effect to that of GFT505 at a dose of 10 mg/kg | expression of PPARα/δ downstream target genes in liver and skeletal muscle [1]: significantly up-regulated | EC50 (PPARα): 0.7 nM | PPARα EC50 (nM) (PPARα): picomolar levels; also recorded: low nanomolar levels | metabolic stability in human liver microsomes ([2]; human liver microsomes): very good metabolic stability | CLint scaled [2, 6]: 6.2 mL/min/kg | half-life [2, 6]: > 2 h | pharmacokinetic properties ([3]; in vivo): good pharmacokinetic properties | Half-life T1/2 ([3]; intravenous injection, 2 mpk): 4.82 ± 1.05 h | Peak concentration Cmax ([3]; intravenous injection, 2 mpk): 4306.67 ± 1546.13 ng/mL | AUC(0-inf) [3, 7]: 4250 ± 1240 ng·h/mL | Tmax [3, 7]: 0.08 h | AUC(0-inf) [3, 8]: 22300 ± 3550 ng·h/mL | bioavailability ([3]; male, SD, rat, plasma, 10 mg/kg, oral administration, 10 mpk, read-out: Bioavailability F (%)): 104.7 ± 0.17% | Tmax [3, 8]: 2.25 ± 3.25 h | Half-life T1/2 ([3]; oral administration, 10 mpk): 6.72 ± 1.39 h | Peak concentration Cmax ([3]; oral administration, 10 mpk): 2816.67 ± 1020.41 ng/mL
